Results as given in ChEMBL document CHEMBL3885881, “DrugMatrix”.

Organism: Rattus norvegicus
Test: DrugMatrix - Regimen: Daily Repeat
Assay type: toxicity, organism-based, Sprague-Dawley
Set-up: regimen Daily Repeat, gender Male, age 6-8 weeks
Conditions: in vivo, sc, route subcutaneous, […]; for ABSOLUTE BASOPHIL / ABSOLUTE EOSINOPHIL / ABSOLUTE LYMPHOCYTE / ABSOLUTE MONOCYTE / ABSOLUTE SEGMENTED NEUTROPHIL / BASOPHIL / EOSINOPHIL / ERYTHROCYTE COUNT / HEMATOCRIT / HEMOGLOBIN / LEUKOCYTE COUNT / LYMPHOCYTE / MEAN CORPUSCULAR HEMOGLOBIN / MEAN CORPUSCULAR VOLUME / MONOCYTE / NEUTROPHIL / NUCLEATED RED BLOOD CELLS / PLATELET COUNT: tissue Blood; for ALANINE AMINOTRANSFERASE / ALBUMIN / ALKALINE PHOSPHATASE / ASPARTATE AMINOTRANSFERASE / BLOOD UREA NITROGEN / CARBON DIOXIDE / CHLORIDE / CHOLESTEROL / CREATINE PHOSPHOKINASE / CREATININE / GLUCOSE / LACTATE DEHYDROGENASE / LIPASE / PHOSPHORUS / POTASSIUM / SODIUM / TOTAL BILIRUBIN / TOTAL PROTEIN / URIC ACID: tissue Plasma
[1] = 50 mg/kg, 120 h, dose level Low, time 5 day
[2] = 450 mg/kg, 72 h, dose level M2, time 3 day
[3] = 450 mg/kg, 120 h, dose level M2, time 5 day

CCCCCCCCc1ccc(O)cc1 [4-OCTYLPHENOL]
ABSOLUTE BASOPHIL [1]: 0 CELLS/uL
ABSOLUTE EOSINOPHIL [1]: 65.33 CELLS/uL
ABSOLUTE LYMPHOCYTE [1]: 9619.33 CELLS/uL
ABSOLUTE MONOCYTE [1]: 226 CELLS/uL
ABSOLUTE SEGMENTED NEUTROPHIL [1]: 589.33 CELLS/uL
BASOPHIL [1]: 0%
EOSINOPHIL [1]: 0.67%
ERYTHROCYTE COUNT [1]: 5.5 x10E6/uL
HEMATOCRIT [1]: 35.3%
HEMOGLOBIN [1]: 13.8 G/DL
LEUKOCYTE COUNT [1]: 10.5 x10E3/uL
LYMPHOCYTE [1]: 91.33%
MEAN CORPUSCULAR HEMOGLOBIN [1]: 25.17 pg
MEAN CORPUSCULAR VOLUME [1]: 64.33 fL
MONOCYTE [1]: 2.33%
NEUTROPHIL [1]: 5.67%
NUCLEATED RED BLOOD CELLS [1]: 0 /100WBC
PLATELET COUNT [1]: 1190 x10E3/uL
ALANINE AMINOTRANSFERASE [1]: 45.33 u/L
ALBUMIN [1]: 3.2 G/DL
ALKALINE PHOSPHATASE [1]: 276.67 u/L
ASPARTATE AMINOTRANSFERASE [1]: 80 u/L
BLOOD UREA NITROGEN [1]: 15 mg/dL
CARBON DIOXIDE [1]: 29.67 mmol/L
CHLORIDE [1]: 100 MEQ/L
CHOLESTEROL [1]: 78 mg/dL
CREATINE PHOSPHOKINASE [1]: 339.67 u/L
CREATININE [1]: 0.16 mg/dL
GLUCOSE [1]: 161.33 mg/dL
LACTATE DEHYDROGENASE [1]: 367 u/L
LIPASE [1]: 9 u/L
PHOSPHORUS [1]: 12.2 mg/dL
POTASSIUM [1]: 6.42 MEQ/L
SODIUM [1]: 141.23 MEQ/L
TOTAL BILIRUBIN [1]: 0.1 mg/dL
TOTAL PROTEIN [1]: 5.57 G/DL
URIC ACID [1]: 1.5 mg/dL
ABSOLUTE BASOPHIL [2]: 0 CELLS/uL
ABSOLUTE EOSINOPHIL [2]: 58 CELLS/uL
ABSOLUTE LYMPHOCYTE [2]: 8257.67 CELLS/uL
ABSOLUTE MONOCYTE [2]: 28.33 CELLS/uL
ABSOLUTE SEGMENTED NEUTROPHIL [2]: 256 CELLS/uL
BASOPHIL [2]: 0%
EOSINOPHIL [2]: 0.67%
ERYTHROCYTE COUNT [2]: 5.23 x10E6/uL
HEMATOCRIT [2]: 32.2%
HEMOGLOBIN [2]: 12.73 G/DL
LEUKOCYTE COUNT [2]: 8.6 x10E3/uL
LYMPHOCYTE [2]: 96%
MEAN CORPUSCULAR HEMOGLOBIN [2]: 24.37 pg
MEAN CORPUSCULAR VOLUME [2]: 61.63 fL
MONOCYTE [2]: 0.33%
NEUTROPHIL [2]: 3%
NUCLEATED RED BLOOD CELLS [2]: 0 /100WBC
PLATELET COUNT [2]: 1100 x10E3/uL
ALANINE AMINOTRANSFERASE [2]: 61 u/L
ALBUMIN [2]: 3.07 G/DL
ALKALINE PHOSPHATASE [2]: 305.67 u/L
ASPARTATE AMINOTRANSFERASE [2]: 93.67 u/L
BLOOD UREA NITROGEN [2]: 9.67 mg/dL
CARBON DIOXIDE [2]: 24 mmol/L
CHLORIDE [2]: 94 MEQ/L
CHOLESTEROL [2]: 75.33 mg/dL
CREATINE PHOSPHOKINASE [2]: 340.33 u/L
CREATININE [2]: 0.3 mg/dL
GLUCOSE [2]: 117.67 mg/dL
LACTATE DEHYDROGENASE [2]: 409.67 u/L
LIPASE [2]: 9 u/L
PHOSPHORUS [2]: 10.37 mg/dL
POTASSIUM [2]: 5.55 MEQ/L
SODIUM [2]: 137.75 MEQ/L
TOTAL BILIRUBIN [2]: 0.1 mg/dL
TOTAL PROTEIN [2]: 5.1 G/DL
URIC ACID [2]: 0.63 mg/dL
ABSOLUTE BASOPHIL [3]: 0 CELLS/uL
ABSOLUTE EOSINOPHIL [3]: 224.33 CELLS/uL
ABSOLUTE LYMPHOCYTE [3]: 13520.67 CELLS/uL
ABSOLUTE MONOCYTE [3]: 303.33 CELLS/uL
ABSOLUTE SEGMENTED NEUTROPHIL [3]: 3318.33 CELLS/uL
BASOPHIL [3]: 0%
EOSINOPHIL [3]: 1.33%
ERYTHROCYTE COUNT [3]: 5.94 x10E6/uL
HEMATOCRIT [3]: 36.27%
HEMOGLOBIN [3]: 14.17 G/DL
LEUKOCYTE COUNT [3]: 17.37 x10E3/uL
LYMPHOCYTE [3]: 78%
MEAN CORPUSCULAR HEMOGLOBIN [3]: 23.97 pg
MEAN CORPUSCULAR VOLUME [3]: 61.27 fL
MONOCYTE [3]: 1.67%
NEUTROPHIL [3]: 19%
NUCLEATED RED BLOOD CELLS [3]: 0 /100WBC
PLATELET COUNT [3]: 1864.67 x10E3/uL
ALANINE AMINOTRANSFERASE [3]: 43.33 u/L
ALBUMIN [3]: 3.17 G/DL
ALKALINE PHOSPHATASE [3]: 326.67 u/L
ASPARTATE AMINOTRANSFERASE [3]: 82.67 u/L
BLOOD UREA NITROGEN [3]: 14 mg/dL
CARBON DIOXIDE [3]: 25.33 mmol/L
CHLORIDE [3]: 102.67 MEQ/L
CHOLESTEROL [3]: 71.67 mg/dL
CREATINE PHOSPHOKINASE [3]: 343 u/L
CREATININE [3]: 0.19 mg/dL
GLUCOSE [3]: 162.33 mg/dL
LACTATE DEHYDROGENASE [3]: 384.67 u/L
LIPASE [3]: 9.67 u/L
PHOSPHORUS [3]: 12.93 mg/dL
POTASSIUM [3]: 7.17 MEQ/L
SODIUM [3]: 141.23 MEQ/L
TOTAL BILIRUBIN [3]: 0.13 mg/dL
TOTAL PROTEIN [3]: 5.4 G/DL
URIC ACID [3]: 2.67 mg/dL
